We go through 35 molecules from a melting point compilation (Tetko et al.; mined from patent text by program, amines drawn as free bases though some values may be those of a salt).

Where only a bound is given, the exact number is not on record here.

Molecule `CC(=O)OCC(=O)C1CCC2C3CCC4CC(O)C(N5CCOC(C)(C)C5)CC4(C)C3C(=O)CC12C` (stereo not given) had a melting point of 158 to 160 °C.

The molecule `Cc1c(C(=O)Nc2ccc(Oc3ccccc3)c(C#N)c2)cnn1-c1ccc(F)cc1` showed a melting point of 182 to 183 °C.

`COc1nc(C)c(C)nc1NC(=O)N1CCN(c2ccc(C(C)=O)cc2)CC1` had a melting point of 166 to 168 °C.

Turning to `c1ccc(-c2nc3ccccn3c2-c2ccnc(-c3ccc(N4CCOCC4)cc3)c2)nc1`, the melting point turned out to be 145 °C.

For `CCCC1=C(C(=O)OCC)C(c2ccccc2N)c2c[nH]nc2N1` (stereo not given), the melting point turned out to be 179 °C.

`N#Cc1ccc(OCCc2coc(-c3ccccc3)n2)cc1` came in with a melting point of 115 °C.

Molecule `CC(C)[Si](C#Cc1c2ccccc2c2ccc3c(C#C[Si](C(C)C)(C(C)C)C(C)C)c4ccccc4c4ccc1c2c34)(C(C)C)C(C)C` displayed a melting point of 318 to 321 °C.

For `CNc1ncnc2c1ncn2Cc1c(F)cccc1Cl`, the melting point was in the range of 188 to 190 °C.

`FC(F)(F)c1nc(-c2ccccc2)c(-c2ccccc2)s1` registered a melting point of 94 to 97 °C.

With `CC(=O)c1c(C)c2cnc(Nc3ccc(N4CCOCC4)nc3)nc2n(C2CCCC2)c1=O`, the melting point fell in the range of 224 to 226 °C.

`O=C1CCC(=O)N1CCCCSc1ccncc1`: the melting point fell in the range of 80 to 81 °C.

`COc1c(NC2CCC3(CC2)OCC(C)(C)CO3)ccnc1C` showed a melting point of 45 °C.

As for `CC(C)(C)c1cc(N)n(-c2c(Cl)cc(C(F)(F)F)cc2Cl)n1`, the melting point lay in the range of 110 to 120 °C.

On to `CCOC(=O)C(C#N)=C(c1ccc(F)cc1)c1ccc(F)cc1`, for which the melting point lay within 114 to 116 °C.

For `Cn1c(=S)n(C)c(=O)n(-c2cc(O)c(Cl)cc2F)c1=O`, the melting point was in the range of 242 to 246 °C.

For `N#CC(=O)c1ccccc1CCl`, the melting point is 54.5 to 56.5 °C.

In turn, `CC(=O)Nc1ccc(Sc2c(N)cc(C(=O)O)cc2S(N)(=O)=O)cc1` showed a melting point of 207 °C.

Regarding `COc1ccc(C(=O)c2cc(OC)c(OC)c(OC)c2)cc1`, the melting point is 72 to 73 °C.

As to `O=c1[nH]ncc(Cl)c1-c1ccccc1`, the melting point was 193 to 195 °C.

`Cc1ncc(-c2ccc(F)cc2)n1-c1ccc(Cl)cc1` had a melting point of 132 to 134 °C.

Turning to `COc1ccc(-c2ccc(C(=O)Nc3ccc4nc(CN5C(C)(C)CCCC5(C)C)ccc4c3)cc2)cc1`, the melting point fell in the range of 210 to 211 °C.

Molecule `COc1ccc(Sc2c(C(=O)O)[nH]c3cc(C)ccc23)cc1` had a melting point of 190 to 192 °C.

For `CN(C)c1ccc(NC(=O)C2C(=O)C3CC[C@](C)(C2=O)C3(C)C)cc1` (stereo not given in full), the melting point lay in the range of 93 to 95 °C.

In turn, `COCOc1cc(F)ccc1-c1cc(-c2cccc(C(=O)OC)c2)c(C#N)c(NC(=O)c2ccco2)n1` came in with a melting point of 160 to 162 °C.

`CC(C)[Si](C)(C)CCSCCNC(=O)n1cc(F)c(=O)[nH]c1=O` yielded a melting point of 85 to 86 °C.

For `CCOC(Cc1ccc(OCCOC2c3ccccc3CCc3ccccc32)cc1)C(=O)O` (stereo not given), the melting point fell in the range of 148 to 150 °C.

Consider `CCOc1c(C)c(C)c(O)c(CNCCOc2cc(C)ccc2C(C)C)c1C`, for which the melting point was 99 to 101 °C.

`O=C(Nc1cc2c(s1)-c1ccccc1OC2C1=CCCC=C1)C(F)(F)F` (stereo not given) displayed a melting point of 174 to 176 °C.

Molecule `CN(CC1COc2ccccc2O1)S(N)(=O)=O` (stereo not given) had a melting point of 97 to 98 °C.

With `C#CCOc1cc2c(cc1OC)C(=C(C#N)C(=O)OCC)CC2(C)C`, the melting point lay within 132 to 136 °C.

Take `O=C(O)c1cccc(NCc2cccnc2)c1C(=O)O`: the melting point was 231 to 233 °C.

Consider `CCOC(=O)C(C(=O)C(F)(F)F)=C(Cc1ccccc1)C(N)C(=O)OCC` (stereo not given), for which the melting point is 63 to 65 °C.

Regarding `COc1cc2sc(C(=O)O)c(Cl)c2cc1OC`, the melting point is greater than 260 °C.

In turn, `COc1ccc(C(=O)CCC#N)cc1` had a melting point of 94 °C.

`CCCCCCCCCC(=O)c1ccc(OCc2ccc(C=C3SC(=S)NC3=O)cc2)c(CCC)c1O` gave a melting point of 188 °C.
